Data taken from US20090062243A1, “Lupane-Type Triterpenoids Modified at 30-Position and Analogues Thereof” (ADVANCED LIFE SCIENCES, INC., priority 2007, published 2009).

Each compound was assayed on HT-29 (colon carcinoma) (assay: MTS cell viability assay, HT-29). Conditions: Homo sapiens, HT-29, cells incubated 72 h.
Format: cell-based
Description: (§1) Cells were plated, the evening before treatment, for each treatment on 96-well plates (1×10^4 cells/well) in 100 μL volume per well. Analog solutions were prepared by diluting each test compound in DSMO (10 mM) with the appropriate cell growth media for each individual cell line, or in “Universal Media” if several cell lines were to be assayed in parallel, immediately prior to cell treatment. Universal Media consisted of 5 mL sodium pyruvate (100× liquid stock, MediaTech), 5 mL glucose (100×, 45% liquid stock, MediaTech), 5 mL Penicillin/Streptomycin (100× liquid stock, MediaTech), 10 mL sodium bicarbonate (50× liquid stock, MediaTech), 25 mL Fetal Calf Serum, 1.25 mL insulin (4 mg/mL, Gibco) and […] RPMI media with 2 mM L-glutamine for a total volume of 500 mL.
(§2) Cells were treated by aspirating plating media from each well and adding 80 μL of betulinic acid (control) or each analog solution in serial dilutions to the adherent cells. All treatments were performed in triplicate. Growth media (80 μL) was added to 3 blank wells (no cells) to measure background from the growth media. Growth media alone (no DMSO or test compound) was added to 3 wells containing cells to measure the baseline MTS activity. Vehicle (DMSO) control in serial dilutions, added to cells, was also included to monitor basal toxicity from DMSO. Cells were incubated at 37° C. for 72 h, or 120 h for the OVCAR cell lines. MTS reagent (per 96-well plate) were prepared by combining 2 mL of MTS working solution (Cell Titer AQueous Non-Radioactive Cell Proliferation Assay, Promega, cat#G1112), 100 μL of 0.92 mg/mL phenazine methosulfate/Dulbecco's PBS and 2.1 mL growth media. MTS reagent (40 μL) were added to each well and incubated at 37° C. for 1.5 to 4 h. Plates were gently shaken by hand until solution in each well appeared homogenous. Absorbances at 490 nm were measured on a Wallac Victor II plate reader at multiple time points following the addition of MTS reagent for each plate. Triplicate absorbance (490 nm) measurements were averaged following background (no cell) subtraction for each drug concentration. Percent Cell Viability was calculated for each drug concentration using the following equation:
(§3) {[Absorbance(analog treated)]/[Absorbance(DMSO treated)]}×100%
(§4) Cytotoxicity dose response for the triterpenoid derivatives synthesized in SK-MEL-2 (melanoma), A-375 (melanoma), Daoy (glioblastoma), LN-229 (glioblastoma), OVCAR-3 (ovarian carcinoma), HT-29 (colon carcinoma), MCF-7 (breast carcinoma) cell lines using the standard MTS assay is summarized in Table 1. In Table 1, compounds 22a-d and compounds 23a-c refer to structures 22 and 23 in Scheme 5, respectively. Compounds 24aa-an and 24ba-bq refer to structure 24 in Scheme 6. Compounds 26a-e refer to structure 26 in Scheme 6. Compounds 36a-c refer to structure 36 in Scheme 10.

Row | Structure (SMILES) | IC50 [µM]
1 | C=C(CO)[C@@H]1CC[C@]2(COC3CCCCO3)CC[C@]3(C)[C@H](CC[C@@H]4[C@@]5(C)CCC(NCCOC)C(C)(C)[C@@H]5CC[C@]43C)[C@@H]12 (stereo partly shown) [Compound 24ae] | 19
2 | C=C(CO)[C@@H]1CC[C@]2(COC3CCCCO3)CC[C@]3(C)[C@H](CC[C@@H]4[C@@]5(C)CCC(=O)C(C)(C)[C@@H]5CC[C@]43C)[C@@H]12 (stereo partly shown) [Compound 5] | 75
3 | C=C(CO)[C@@H]1CC[C@]2(CO)CC[C@]3(C)[C@H](CC[C@@H]4[C@@]5(C)CCC(NCCc6ccc(O)c(O)c6)C(C)(C)[C@@H]5CC[C@]43C)[C@@H]12 (stereo partly shown) [Compound 24aj] | 37
4 | C=C(C=O)[C@@H]1CC[C@]2(COC(C)=O)CC[C@]3(C)[C@H](CC[C@@H]4[C@@]5(C)CCC(=O)C(C)(C)[C@@H]5CC[C@]43C)[C@@H]12 [Compound 14a] | 46
5 | C=C(CO)[C@@H]1CC[C@]2(COC3CCCCO3)CC[C@]3(C)[C@H](CC[C@@H]4[C@@]5(C)CCC(NCCc6ccc(O)c(O)c6)C(C)(C)[C@@H]5CC[C@]43C)[C@@H]12 (stereo partly shown) [Compound 24ai] | 26

These compounds were tested on MCF-7 (breast carcinoma) (assay: MTS cell viability assay, MCF-7). Conditions: Homo sapiens, MCF7, cells incubated 72 h.
Format: cell-based
Description: as §1, §2, §3, §4

Row | Structure (SMILES) | IC50 [µM]
6 | C=C(CO)[C@@H]1CC[C@]2(COC3CCCCO3)CC[C@]3(C)[C@H](CC[C@@H]4[C@@]5(C)CCC(NCCOC)C(C)(C)[C@@H]5CC[C@]43C)[C@@H]12 (stereo partly shown) [Compound 24ae] | 16
7 | C=C(CO)[C@@H]1CC[C@]2(COC3CCCCO3)CC[C@]3(C)[C@H](CC[C@@H]4[C@@]5(C)CCC(=O)C(C)(C)[C@@H]5CC[C@]43C)[C@@H]12 (stereo partly shown) [Compound 5] | 37
8 | C=C(CO)[C@@H]1CC[C@]2(CO)CC[C@]3(C)[C@H](CC[C@@H]4[C@@]5(C)CCC(NCCc6ccc(O)c(O)c6)C(C)(C)[C@@H]5CC[C@]43C)[C@@H]12 (stereo partly shown) [Compound 24aj] | 31
9 | C=C(C=O)[C@@H]1CC[C@]2(COC(C)=O)CC[C@]3(C)[C@H](CC[C@@H]4[C@@]5(C)CCC(=O)C(C)(C)[C@@H]5CC[C@]43C)[C@@H]12 [Compound 14a] | 56
10 | C=C(CO)[C@@H]1CC[C@]2(COC3CCCCO3)CC[C@]3(C)[C@H](CC[C@@H]4[C@@]5(C)CCC(NCCc6ccc(O)c(O)c6)C(C)(C)[C@@H]5CC[C@]43C)[C@@H]12 (stereo partly shown) [Compound 24ai] | 16

Each compound was assayed on Daoy (assay: MTS cell viability assay, Daoy). Conditions: Homo sapiens, Daoy, cells incubated 72 h.
Format: cell-based
Description: as §1, §2, §3, §4

Row | Structure (SMILES) | IC50 [µM]
11 | C=C(CO)[C@@H]1CC[C@]2(COC3CCCCO3)CC[C@]3(C)[C@H](CC[C@@H]4[C@@]5(C)CCC(NCCOC)C(C)(C)[C@@H]5CC[C@]43C)[C@@H]12 (stereo partly shown) [Compound 24ae] | 28
12 | C=C(CO)[C@@H]1CC[C@]2(COC3CCCCO3)CC[C@]3(C)[C@H](CC[C@@H]4[C@@]5(C)CCC(=O)C(C)(C)[C@@H]5CC[C@]43C)[C@@H]12 (stereo partly shown) [Compound 5] | 35
13 | C=C(CO)[C@@H]1CC[C@]2(CO)CC[C@]3(C)[C@H](CC[C@@H]4[C@@]5(C)CCC(NCCc6ccc(O)c(O)c6)C(C)(C)[C@@H]5CC[C@]43C)[C@@H]12 (stereo partly shown) [Compound 24aj] | 34
14 | C=C(C=O)[C@@H]1CC[C@]2(COC(C)=O)CC[C@]3(C)[C@H](CC[C@@H]4[C@@]5(C)CCC(=O)C(C)(C)[C@@H]5CC[C@]43C)[C@@H]12 [Compound 14a] | 7
15 | C=C(CO)[C@@H]1CC[C@]2(COC3CCCCO3)CC[C@]3(C)[C@H](CC[C@@H]4[C@@]5(C)CCC(NCCc6ccc(O)c(O)c6)C(C)(C)[C@@H]5CC[C@]43C)[C@@H]12 (stereo partly shown) [Compound 24ai] | 6

These compounds were tested on OVCAR-3 (ovarian carcinoma) (assay: MTS cell viability assay, OVCAR-3). Conditions: Homo sapiens, OVCAR-3, 120 h for the OVCAR cell lines.
Format: cell-based
Description: as §1, §2, §3, §4

Row | Structure (SMILES) | IC50 [µM]
16 | C=C(CO)[C@@H]1CC[C@]2(COC3CCCCO3)CC[C@]3(C)[C@H](CC[C@@H]4[C@@]5(C)CCC(NCCOC)C(C)(C)[C@@H]5CC[C@]43C)[C@@H]12 (stereo partly shown) [Compound 24ae] | 17
17 | C=C(CO)[C@@H]1CC[C@]2(COC3CCCCO3)CC[C@]3(C)[C@H](CC[C@@H]4[C@@]5(C)CCC(=O)C(C)(C)[C@@H]5CC[C@]43C)[C@@H]12 (stereo partly shown) [Compound 5] | 48
18 | C=C(CO)[C@@H]1CC[C@]2(CO)CC[C@]3(C)[C@H](CC[C@@H]4[C@@]5(C)CCC(NCCc6ccc(O)c(O)c6)C(C)(C)[C@@H]5CC[C@]43C)[C@@H]12 (stereo partly shown) [Compound 24aj] | 18
19 | C=C(C=O)[C@@H]1CC[C@]2(COC(C)=O)CC[C@]3(C)[C@H](CC[C@@H]4[C@@]5(C)CCC(=O)C(C)(C)[C@@H]5CC[C@]43C)[C@@H]12 [Compound 14a] | 4
20 | C=C(CO)[C@@H]1CC[C@]2(COC3CCCCO3)CC[C@]3(C)[C@H](CC[C@@H]4[C@@]5(C)CCC(NCCc6ccc(O)c(O)c6)C(C)(C)[C@@H]5CC[C@]43C)[C@@H]12 (stereo partly shown) [Compound 24ai] | 4

The compounds below were run on A-375 (melanoma) (assay: MTS cell viability assay, A-375). Conditions: Homo sapiens, A-375, cells incubated 72 h.
Format: cell-based
Description: as §1, §2, §3, §4

Row | Structure (SMILES) | IC50 [µM]
21 | C=C(CO)[C@@H]1CC[C@]2(COC3CCCCO3)CC[C@]3(C)[C@H](CC[C@@H]4[C@@]5(C)CCC(NCCOC)C(C)(C)[C@@H]5CC[C@]43C)[C@@H]12 (stereo partly shown) [Compound 24ae] | 6
22 | C=C(CO)[C@@H]1CC[C@]2(CO)CC[C@]3(C)[C@H](CC[C@@H]4[C@@]5(C)CCC(NCCc6ccc(O)c(O)c6)C(C)(C)[C@@H]5CC[C@]43C)[C@@H]12 (stereo partly shown) [Compound 24aj] | 6
23 | C=C(C=O)[C@@H]1CC[C@]2(COC(C)=O)CC[C@]3(C)[C@H](CC[C@@H]4[C@@]5(C)CCC(=O)C(C)(C)[C@@H]5CC[C@]43C)[C@@H]12 [Compound 14a] | 16
24 | C=C(CO)[C@@H]1CC[C@]2(COC3CCCCO3)CC[C@]3(C)[C@H](CC[C@@H]4[C@@]5(C)CCC(NCCc6ccc(O)c(O)c6)C(C)(C)[C@@H]5CC[C@]43C)[C@@H]12 (stereo partly shown) [Compound 24ai] | 14

Each compound was assayed on SK-MEL-2 (melanoma) (assay: MTS cell viability assay, SK-MEL-2). Conditions: Homo sapiens, SK-MEL-2, cells incubated 72 h.
Format: cell-based
Description: as §1, §2, §3, §4

Row | Structure (SMILES) | IC50 [µM]
25 | C=C(CO)[C@@H]1CC[C@]2(COC3CCCCO3)CC[C@]3(C)[C@H](CC[C@@H]4[C@@]5(C)CCC(NCCOC)C(C)(C)[C@@H]5CC[C@]43C)[C@@H]12 (stereo partly shown) [Compound 24ae] | 34
26 | C=C(CO)[C@@H]1CC[C@]2(COC3CCCCO3)CC[C@]3(C)[C@H](CC[C@@H]4[C@@]5(C)CCC(=O)C(C)(C)[C@@H]5CC[C@]43C)[C@@H]12 (stereo partly shown) [Compound 5] | 34
27 | C=C(CO)[C@@H]1CC[C@]2(CO)CC[C@]3(C)[C@H](CC[C@@H]4[C@@]5(C)CCC(NCCc6ccc(O)c(O)c6)C(C)(C)[C@@H]5CC[C@]43C)[C@@H]12 (stereo partly shown) [Compound 24aj] | 24
28 | C=C(C=O)[C@@H]1CC[C@]2(COC(C)=O)CC[C@]3(C)[C@H](CC[C@@H]4[C@@]5(C)CCC(=O)C(C)(C)[C@@H]5CC[C@]43C)[C@@H]12 [Compound 14a] | 12
29 | C=C(CO)[C@@H]1CC[C@]2(COC3CCCCO3)CC[C@]3(C)[C@H](CC[C@@H]4[C@@]5(C)CCC(NCCc6ccc(O)c(O)c6)C(C)(C)[C@@H]5CC[C@]43C)[C@@H]12 (stereo partly shown) [Compound 24ai] | 5

The compounds below were run on LN-229 (glioblastoma) (assay: MTS cell viability assay, LN-229). Conditions: Homo sapiens, LN-229, cells incubated 72 h.
Format: cell-based
Description: as §1, §2, §3, §4

Row | Structure (SMILES) | IC50 [µM]
30 | C=C(CO)[C@@H]1CC[C@]2(COC3CCCCO3)CC[C@]3(C)[C@H](CC[C@@H]4[C@@]5(C)CCC(NCCOC)C(C)(C)[C@@H]5CC[C@]43C)[C@@H]12 (stereo partly shown) [Compound 24ae] | 17
31 | C=C(CO)[C@@H]1CC[C@]2(COC3CCCCO3)CC[C@]3(C)[C@H](CC[C@@H]4[C@@]5(C)CCC(=O)C(C)(C)[C@@H]5CC[C@]43C)[C@@H]12 (stereo partly shown) [Compound 5] | 46
32 | C=C(CO)[C@@H]1CC[C@]2(CO)CC[C@]3(C)[C@H](CC[C@@H]4[C@@]5(C)CCC(NCCc6ccc(O)c(O)c6)C(C)(C)[C@@H]5CC[C@]43C)[C@@H]12 (stereo partly shown) [Compound 24aj] | 17
33 | C=C(C=O)[C@@H]1CC[C@]2(COC(C)=O)CC[C@]3(C)[C@H](CC[C@@H]4[C@@]5(C)CCC(=O)C(C)(C)[C@@H]5CC[C@]43C)[C@@H]12 [Compound 14a] | 9
34 | C=C(CO)[C@@H]1CC[C@]2(COC3CCCCO3)CC[C@]3(C)[C@H](CC[C@@H]4[C@@]5(C)CCC(NCCc6ccc(O)c(O)c6)C(C)(C)[C@@H]5CC[C@]43C)[C@@H]12 (stereo partly shown) [Compound 24ai] | 16
